The test in a line: In vivo inhibition of ATX in rat assessed as reduction in plasma LPA levels at 5 mg/kg, po measured after 8 hrs by LC-MS analysis relative to control. The test is classed as functional.

The term inhibition in vivo denotes the drop in the measured response relative to a control, in per cent. In the case of `CC(=O)N1CCN(c2ccc(CNc3ccc(OCc4cccc(C#N)c4)nn3)cc2)CC1`, the inhibition in vivo at 5 mg/kg amounted to 95.7%.
Under `COc1ccc(COc2ccc(NCc3ccc(N4CCN(C(C)=O)CC4)cc3)nn2)cn1` stands 98.3%.
